Test results published in US7605272B2, “IGF-1R inhibitor” (Kyowa Hakko Kirin Co., Ltd., priority 2005, dated 2009).
Read-outs that look alike come from different tables or passages of the source.

Key:
[1] = test system: AsPC-1; test: Cytostatic activity on human pancreatic cancer cell line AsPC-1 (WST-1); assay type: cell-based; details: 10 μmol/L; for inhibition at 10 µM: Homo sapiens, ASPC1, 72 h, read-out: cytostatic rate (%) AsPC-1 (10 μmol/L)
Procedure: (§1) The cytostatic rates of the test compound on the human pancreatic cancer cell line AsPC-1 and the human colon cancer cell line Colo205 were determined in the following manner.
(§2) For culturing AsPC-1, RPMI 1640 medium containing 20% fetal bovine serum, 1 mmol/L sodium pyruvate, 10 mmol/L HEPES, 4.5 g/L glucose and penicillin/streptomycin (1:1). The Colo205 cell was cultured using RPMI 1640 medium containing 10% fetal bovine serum, 1 mmol/L sodium pyruvate, 10 mmol/L HEPES, 4.5 g/L glucose and penicillin/streptomycin (1:1) was used. Each 80 μL of the AsPC-1 cell having a concentration of 5×10^4 cells/mL (or the Colo205 having a concentration of 5×10^4 cells/mL) was inoculated to wells of a TC MICROWELL 96F plate (Nalge Nunc International, Catalog No. 167008) and was cultured in a 5% carbon dioxide gas incubator at 37° C. for 24 hours. Each 20 μL of a solution of the test compound in DMSO which was prepared to make the final concentration to 1 μmol/L or 10 μmol/L, was added to each well. Each 20 μL of DMSO was added to the control well and the blank well to a final concentration of 0.1%. After adding the test compound, the cell was incubated in a 5% carbon dioxide gas incubator at 37° C. for 72 hours except for the blank well. After adding 20 μL of WST-1 reagent which was diluted to 50% by RPMI medium to each well, the cells were further incubated at 37° C. for 2 hours. Then, the absorbances at 450 nm (reference wavelength: 690 nm) were determined with a microplate spectrophotometer SPECTRA max 340PC. The cytostatic rate (%) was then determined in the similar manner to the above multiple myeloma cell lines.

[2] = test system: Colo205; test: Cytostatic activity on human colon cancer cell line Colo205 (WST-1); assay type: cell-based; details: 10 μmol/L; for inhibition at 10 µM: Homo sapiens, COLO 205, 72 h, read-out: cytostatic rate (%) Colo205 (10 μmol/L)
Procedure: as §1, §2

[3] = test system: KMS-11; test: Cytostatic activity on human multiple myeloma cell line KMS-11 (WST-1); assay type: cell-based; details: for inhibition at 10 µM / inhibition at 1 µM: Homo sapiens, KMS-11, 72 h; for inhibition at 10 µM: read-out: cytostatic rate (%) KMS-11 (10 μmol/L); for inhibition at 1 µM: read-out: cytostatic rate (%) KMS-11 (1 μmol/L)
Outline: (§3)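 Cytostatic rate is 100 minus % growth relative to DMSO-only wells (100%) and blank wells (0%), read by WST-1 absorbance at 450/690 nm after 2 h. Compound at 1 or 10 μmol/L final was applied for 72 h at 37 °C to cells seeded 24 h earlier.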

[4] = test system: NCI-H929; test: Cytostatic activity on human multiple myeloma cell line NCI-H929 (WST-1); assay type: cell-based; details: for inhibition at 10 µM / inhibition at 1 µM: Homo sapiens, NCI-H929, 72 h; for inhibition at 10 µM: read-out: cytostatic rate (%) H929 (10 μmol/L); for inhibition at 1 µM: read-out: cytostatic rate (%) H929 (1 μmol/L)
Outline: as §3

[5] = biological target: T1, IGF-1R (Homo sapiens, UniProt P08069); test: IGF-1R inhibitory activity (kinase reaction, time-resolved fluoroimmunoassay); assay type: biochemical; details: test compound 10 μmol/L
T1 construct: purchased Upstate Co. 14-465
T1 sequence (P08069 959-1367 limits assumed): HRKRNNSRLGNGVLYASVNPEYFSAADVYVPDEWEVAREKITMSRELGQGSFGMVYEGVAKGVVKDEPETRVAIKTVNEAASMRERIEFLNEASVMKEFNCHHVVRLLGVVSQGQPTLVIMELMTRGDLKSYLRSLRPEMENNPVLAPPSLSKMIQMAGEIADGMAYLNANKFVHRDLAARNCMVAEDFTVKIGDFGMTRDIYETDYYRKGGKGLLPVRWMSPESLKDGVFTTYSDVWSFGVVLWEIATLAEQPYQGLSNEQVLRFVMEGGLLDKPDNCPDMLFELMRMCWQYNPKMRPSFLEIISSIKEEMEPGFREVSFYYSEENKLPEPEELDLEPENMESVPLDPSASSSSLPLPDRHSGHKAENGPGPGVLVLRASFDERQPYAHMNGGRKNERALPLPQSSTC
Outline: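 Compounds were tested at a single 10 μmol/L concentration. Each was incubated with recombinant IGF-1R (200 μg/L), 10 mmol/L ATP, MgCl2/MnCl2 and Na3VO4 (pH 7.5) on immobilized poly(Glu-Tyr) peptide for 30 min at 24° C. Eu-anti-phosphotyrosine time-resolved fluorescence (340/615 nm) gave relative activity against no-compound and no-enzyme wells, reported as % inhibition.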

[6] = IGF-1R active recombinant enzyme
[7] = KMS-11 cells, test compound 1 μmol/L, WST-1
[8] = NCI-H929 cells, test compound 1 μmol/L, WST-1

inhibition at 10 µM [5, 6] [%] | Structure (SMILES) | inhibition at 10 µM [1] [%] | inhibition at 10 µM [2] [%] | inhibition at 10 µM ([3]; 10 μmol/L, 72 hours) [%] | inhibition at 10 µM ([4]; 10 μmol/L, 72 hours) [%] | other results
97.9 | Cn1cccc1C(=O)Nc1ccccc1/C=C/c1n[nH]c2ccccc12 [Compound 29, (E)-N-{2-[2-(1H-indazol-3-yl)vinyl]phenyl}-1-methyl-1H-pyrrole-2-carboxamide] | 66.1 | 114 | 112 | 117 | 
98.6 | Cc1ccsc1C(=O)Nc1ccccc1/C=C/c1n[nH]c2ccccc12 [Compound 41, (E)-N-{2-[2-(1H-indazol-3-yl)vinyl]phenyl}-3-methylthiophene-2-carboxamide] | 85.5 | 115 | 109 | 121 | 
97.8 | O=C(Nc1ccccc1/C=C/c1n[nH]c2ccccc12)c1cc2ccccc2s1 [Compound 46, (E)-N-{2-[2-(1H-indazol-3-yl)vinyl]phenyl}benzo[b]thiophene-2-carboxamide] | 120 | 112 | 115 | 118 | 
 | O=C(Nc1ccccc1/C=C/c1n[nH]c2ccccc12)c1ccccc1 [Compound 85, (E)-N-{2-[2-(1H-indazol-3-yl)vinyl]phenyl}benzamide] | 125 | 116 | 124 | 134 | inhibition at 10 µM [5]: 99.5%
 | Cc1ccsc1C(=O)Nc1cc(C(=O)N2CCOCC2)ccc1/C=C/c1n[nH]c2ccccc12 [Compound 100, (E)-N-{2-[2-(1H-indazol-3-yl)vinyl]-5-(morpholin-4-ylcarbonyl)phenyl}-3-methylthiophene-2-carboxamide] | 108 | 121 | 115 | 122 | inhibition at 10 µM [5]: 98.6%
 | Cc1ccsc1C(=O)Nc1cc(CO)ccc1/C=C/c1n[nH]c2ccccc12 [Compound 108, (E)-N-{5-hydroxymethyl-2-[2-(1H-indazol-3-yl)vinyl]phenyl}-3-methylthiophene-2-carboxamide] | 87.9 | 121 | 110 | 123 | inhibition at 10 µM [5]: 95%
 | COc1cccc(/C=C/c2n[nH]c3ccccc23)c1NC(=O)c1cccn1C [Compound 109, (E)-N-{2-[2-(1H-indazol-3-yl)vinyl]-6-methoxyphenyl}-1-methyl-1H-pyrrole-2-carboxamide] | 114 | 123 | 117 | 116 | inhibition at 10 µM [5]: 103%
 | Cc1ccsc1C(=O)Nc1cc(C(=O)N2CCOCC2)ccc1/C=C/c1n[nH]c2ccccc12.Cl [Compound 115, (E)-N-{2-[2-(1H-indazol-3-yl)vinyl]-5-(morpholin-4-ylcarbonyl)phenyl}-3-methylthiophene-2-carboxamide hydrochloride] |  |  |  |  | cytostatic rate (%) AsPC-1 (10 μmol/L) ([1]; 72 hours): 108.7%; cytostatic rate (%) Colo205 (10 μmol/L) ([2]; 72 hours): 121.6%; cytostatic rate (%) KMS-11 (10 μmol/L) ([3]; 10 μmol/L, 72 hours): 115.5%; cytostatic rate (%) H929 (10 μmol/L) ([4]; 10 μmol/L, 72 hours): 120.0%; inhibitory activity (%) at 10 μmol/L [5]: 100.1%
103 | COc1c(OCCCN2CCC[C@H]2CO)ccc(/C=C/c2n[nH]c3ccccc23)c1NC(=O)c1sccc1C [Compound 340, (E)-(s)-N-{3-[3-(2-hydroxymethylpyrrolidin-1-yl)propoxy]-6-[2-(1H-indazol-3-yl)vinyl]-2-methoxyphenyl}-3-methylthiophene-2-carboxamide] |  |  |  |  | inhibition at 1 µM [3, 7]: 118%; inhibition at 1 µM [4, 8]: 121%
105 | COc1c(OCCCN2CCNC(=O)C2)ccc(/C=C/c2n[nH]c3ccccc23)c1NC(=O)c1sccc1C [Compound 341, (E)-N-{6-[2-(1H-indazol-3-yl)vinyl]-2-methoxy-3-[3-(3-oxopiperazin-1-yl)propoxy]phenyl}-3-methylthiophene-2-carboxamide] |  |  |  |  | inhibition at 1 µM [3, 7]: 124%; inhibition at 1 µM [4, 8]: 120%
 | COc1c(OCCCN2CCOCC2)ccc(/C=C/c2n[nH]c3ccccc23)c1NC(=O)c1sccc1C [Compound 342, (E)-N-{6-[2-(1H-indazol-3-yl)vinyl]-2-methoxy-3-(3-morpholin-4-yl)propoxyphenyl}-3-methylthiophene-2-carboxamide] |  |  |  |  | cytostatic rate (%) KMS-11 (1 μmol/L) [3, 7]: 122.6%; cytostatic rate (%) H929 (1 μmol/L) [4, 8]: 118.7%; inhibitory activity (%) at 10 μmol/L [5, 6]: 101.6%
 | COc1c(OC(=O)CC(=O)N2CC[C@@H](O)C2)ccc(/C=C/c2n[nH]c3ccccc23)c1NC(=O)c1sccc1C [Compound 343, (E)-N—(R)-{6-[2-(1H-indazol-3-yl)vinyl]-2-methoxy-3-[(3-hydroxypyrrolidine-1-ylcarbonyl)acetyloxy]phenyl}-3-methylthiophene-2-carboxamide] |  |  |  |  | cytostatic rate (%) KMS-11 (1 μmol/L) [3, 7]: 79%; cytostatic rate (%) H929 (1 μmol/L) [4, 8]: 127.5%; inhibitory activity (%) at 10 μmol/L [5, 6]: 98.4%
97.4 | COc1c(OCCCN2CCC(O)CC2)ccc(/C=C/c2n[nH]c3ccccc23)c1NC(=O)c1sccc1C [Compound 344, (E)-N-{3-[3-(4-hydroxypiperidin-1-yl)propoxy]-6-[2-(1H-indazol-3-yl)vinyl]-2-methoxyphenyl}-3-methylthiophene-2-carboxamide] |  |  |  |  | inhibition at 1 µM [3, 7]: 117%; inhibition at 1 µM [4, 8]: 133%
114 | COc1c(OCCCN2CC[C@@H](N)C2)ccc(/C=C/c2n[nH]c3ccccc23)c1NC(=O)c1sccc1C [Compound 346, (R)-(E)-N-{3-[3-(3-aminopyrrolidin-1-yl)propoxy]-6-[2-(1H-indazol-3-yl)vinyl]-2-methoxyphenyl}-3-methylthiophene-2-carboxamide] |  |  |  |  | inhibition at 1 µM ([3]; 1 μmol/L, 72 hours): 97.2%; inhibition at 1 µM ([4]; 1 μmol/L, 72 hours): 114%
106 | COc1c(OCCCN(C)CCO)ccc(/C=C/c2n[nH]c3ccccc23)c1NC(=O)c1sccc1C [Compound 347, (E)-N-{3-{3-[(2-hydroxyethyl)methylamino]propoxy}-6-[2-(1H-indazol-3-yl)vinyl]-2-methoxyphenyl}-3-methylthiophene-2-carboxamide] |  |  |  |  | inhibition at 1 µM ([3]; 1 μmol/L, 72 hours): 116%; inhibition at 1 µM ([4]; 1 μmol/L, 72 hours): 116%
 | COc1c(OCCN2CCC(O)CC2)ccc(/C=C/c2n[nH]c3ccccc23)c1NC(=O)c1sccc1C [Compound 349, (E)-{3-[2-(4-hydroxypiperidin-1-yl)ethoxy]-6-[2-(1H-indazol-3-yl)vinyl]-2-methoxyphenyl}-3-methylthiophene-2-carboxamide] |  |  |  |  | cytostatic rate (%) KMS-11 (1 μmol/L) ([3]; 1 μmol/L, 72 hours): 117.2%; cytostatic rate (%) H929 (1 μmol/L) ([4]; 1 μmol/L, 72 hours): 116.3%; inhibitory activity (%) at 10 μmol/L [5, 6]: 101.9%
111 | COc1c(OCCCN2CCC(CO)CC2)ccc(/C=C/c2n[nH]c3ccccc23)c1NC(=O)c1sccc1C [Compound 350, (E)-N-(3-{3-[4-(hydroxymethyl)piperidin-1-yl]propoxy}-6-[2-(1H-indazol-3-yl)vinyl]-2-methoxyphenyl)-3-methylthiophene-2-carboxamide] |  |  |  |  | inhibition at 1 µM ([3]; 1 μmol/L, 72 hours): 117%; inhibition at 1 µM ([4]; 1 μmol/L, 72 hours): 117%
103 | Cn1ccnc1C(=O)Nc1ccccc1/C=C/c1n[nH]c2ccccc12 [Compound 352, (E)-N-{2-[2-(1H-indazol-3-yl)vinyl]phenyl}-1-methyl-1H-imidazole-2-carboxamide] |  |  |  |  | inhibition at 1 µM ([3]; 1 μmol/L, 72 hours): 84.8%; inhibition at 1 µM ([4]; 1 μmol/L, 72 hours): 108%
102 | Cc1c(Br)csc1C(=O)Nc1ccccc1/C=C/c1n[nH]c2ccccc12 [Compound 353, (E)-N-{2-[2-(1H-indazol-3-yl)vinyl]phenyl}-4-bromo-3-methylthiophene-2-carboxamide] |  |  |  |  | inhibition at 1 µM ([3]; 1 μmol/L, 72 hours): 77.4%; inhibition at 1 µM ([4]; 1 μmol/L, 72 hours): 104%
